Experimental data taken from the supplement of paper PMC10307832.

How the values were obtained:
Assay in all cases: relative viability (nuclei count vs DMSO), 5 days (fraction); higher = more cells survive
[1] = compound: CC[C@H](Nc1ncnc2[nH]cnc12)c1nc2cccc(F)c2c(=O)n1-c1ccccc1 [Idelalisib] + CS(=O)(=O)CCNCc1ccc(-c2ccc3ncnc(Nc4ccc(OCc5cccc(F)c5)c(Cl)c4)c3c2)o1 [Lapatinib] (partner 2 µM)
Method in brief: (§1)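 Lung cancer cell lines, seeded in 1536-well plates, were treated the following day by pin tool with a single drug or with five library-drug doses (not always all listed) in √10 steps on top of a fixed anchor-drug dose. Cells were fixed and nuclei stained in one step after 5 days, and nuclei were counted. Relative viability is the nuclei count for treated wells divided by that for vehicle wells, reported as medians of duplicate plates.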

[2] = compound: Nc1nc2[nH]cc(CCc3ccc(C(=O)N[C@@H](CCC(=O)O)C(=O)O)cc3)c2c(=O)[nH]1 [Pemetrexed] + Cc1nc(Nc2ncc(C(=O)Nc3c(C)cccc3Cl)s2)cc(N2CCN(CCO)CC2)n1 [Dasatinib] (partner 0.075 µM)
Method in brief: as §1

[3] = compound: CC[C@H](Nc1ncnc2[nH]cnc12)c1nc2cccc(F)c2c(=O)n1-c1ccccc1 [Idelalisib] + Cc1nc(NC(=O)N2CCC[C@H]2C(N)=O)sc1-c1ccnc(C(C)(C)C(F)(F)F)c1 [Alpelisib] (partner 2 µM)
Method in brief: as §1

[4] = compound: Nc1nc2[nH]cc(CCc3ccc(C(=O)N[C@@H](CCC(=O)O)C(=O)O)cc3)c2c(=O)[nH]1 [Pemetrexed] + COc1cc2c(Oc3ccc(NC(=O)C4(C(=O)Nc5ccc(F)cc5)CC4)cc3F)ccnc2cc1OCCCN1CCOCC1 [Foretinib] (partner 0.25 µM)
Method in brief: as §1

Row | Cell Line | relative viability ([1]; first compound 0.04 µM) | relative viability ([1]; first compound 0.1265 µM) | relative viability ([1]; first compound 0.4 µM) | relative viability ([1]; first compound 1.265 µM) | relative viability ([1]; first compound 4 µM) | relative viability ([2]; first compound 0.002 µM) | relative viability ([2]; first compound 0.006325 µM) | relative viability ([2]; first compound 0.02 µM) | relative viability ([2]; first compound 0.06325 µM) | relative viability ([2]; first compound 0.2 µM) | relative viability ([3]; first compound 0.04 µM) | relative viability ([3]; first compound 0.1265 µM) | relative viability ([3]; first compound 0.4 µM) | relative viability ([3]; first compound 1.265 µM) | relative viability ([3]; first compound 4 µM) | relative viability ([4]; first compound 0.002 µM) | relative viability ([4]; first compound 0.006325 µM) | relative viability ([4]; first compound 0.02 µM) | relative viability ([4]; first compound 0.06325 µM) | relative viability ([4]; first compound 0.2 µM)
1 | 201T | 0.978 | 1.05 | 1.04 | 1.13 | 1.02 | 0.59 | 0.554 | 0.592 | 0.559 | 0.507 | 0.974 | 0.987 | 0.937 | 0.963 | 0.872 | 1.1 | 1.11 | 1.19 | 0.69 | 0.316
2 | A549 | 0.96 | 0.996 | 0.924 | 0.923 | 0.832 |  |  |  |  |  | 0.873 | 0.812 | 0.505 | 0.51 | 0.548 | 0.935 | 0.902 | 1.08 | 1.02 | 0.925
3 | A-427 | 1.11 | 1.06 | 1.04 | 1.07 | 1.04 | 0.618 | 0.696 | 0.711 | 0.689 | 0.664 | 1.11 | 1.05 | 0.945 | 1.15 | 1.06 | 0.994 | 1.02 | 1.08 | 0.961 | 0.929
4 | ABC-1 | 1.11 | 1.19 | 1.13 | 1.01 | 1.08 | 0.785 | 0.591 | 0.626 | 0.546 | 0.422 | 0.956 | 1.22 | 1.08 | 1.13 | 0.807 | 1.26 | 0.927 | 1.01 | 0.992 | 1.08
5 | BEN | 0.88 | 0.635 | 0.613 | 0.73 | 0.602 | 0.374 | 0.288 | 0.345 | 0.303 | 0.349 | 1.05 | 1.13 | 0.853 | 1.04 | 0.853 | 0.739 | 0.739 | 0.83 | 0.615 | 0.726
6 | CAL-12T | 0.672 | 0.7 | 0.616 | 0.471 | 0.501 | 0.327 | 0.322 | 0.515 | 0.43 | 0.5 | 1.34 | 1.18 | 0.898 | 0.966 | 0.971 | 1.04 | 1.07 | 1.24 | 1.17 | 1.04
7 | COR-L23 | 1.09 | 1.14 | 0.711 | 1.29 | 0.926 | 0.457 | 0.468 | 0.396 | 0.263 | 0.135 | 0.698 | 0.769 | 0.634 | 0.69 | 0.763 | 1.01 | 1.07 | 0.946 | 0.497 | 0.239
8 | COR-L 105 | 0.385 | 0.353 | 0.294 | 0.374 | 0.362 | 0.349 | 0.216 | 0.399 | 0.363 | 0.398 | 1.05 | 1.08 | 0.855 | 0.83 | 0.586 | 0.97 | 1.16 | 1.17 | 1.15 | 1.24
9 | Calu-6 | 1.04 | 1.06 | 1.05 | 1.02 | 1.06 |  |  |  |  |  | 0.954 | 1.03 | 0.909 | 0.99 | 0.892 | 0.821 | 0.877 | 0.95 | 0.888 | 0.845
10 | ChaGo-K-1 |  |  |  |  |  | 0.59 | 0.555 | 0.591 | 0.266 | 0.237 |  |  |  |  |  | 0.991 | 0.919 | 0.948 | 0.529 | 0.301
11 | EBC-1 | 0.225 | 0.198 | 0.233 | 0.239 | 0.222 |  |  |  |  |  | 0.961 | 0.941 | 0.684 | 0.658 | 0.349 | 0.117 | 0.112 | 0.107 | 0.0993 | 0.0915
12 | EKVX | 0.21 | 0.234 | 0.184 | 0.201 | 0.186 | 0.572 | 0.544 | 0.615 | 0.336 | 0.479 | 0.835 | 0.896 | 0.728 | 0.625 | 0.53 | 0.733 | 0.795 | 1.05 | 0.908 | 0.491
13 | EMC-BAC-2 | 0.91 | 0.953 | 0.827 | 0.905 | 0.833 | 0.161 | 0.344 | 0.32 | 0.331 | 0.27 | 0.689 | 0.736 | 0.674 | 0.707 | 0.684 | 1.02 | 0.923 | 1.01 | 1 | 0.902
14 | EPLC-272H | 0.951 | 1.04 | 0.705 | 0.901 | 0.84 | 0.328 | 0.382 | 0.419 | 0.299 | 0.297 | 0.617 | 0.9 | 0.767 | 0.74 | 0.669 | 0.648 | 0.609 | 0.774 | 0.678 | 0.573
